What was measured:
[1] = system: brains, heart, liver, muscle, and DRG of the NHPs; assay: Maturation of TTM-001 and TTM-002 capsids, NGS enrichment in NHP tissues; type: in vivo; settings: relative to AAV9 control
How it was run: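 Variants carry mutations within and flanking the loop IV peptide insert: positions 450–466 were triplet-randomized, while positions 449–466 received low-frequency point mutations. The combined pool went into two NHPs, and each peptide was scored by NGS enrichment ratio against AAV9.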

brain = assay: Matured TTM-001 and TTM-002 variants, NGS enrichment in mouse brain; type: in vivo, mice; settings: relative to AAV9 control
[2] = NGS fold-enrichment, DRG of NHPs
[3] = NGS fold-enrichment, RNA, brain of NHPs
[4] = NGS fold-enrichment, heart of NHPs
[5] = NGS fold-enrichment, liver DNA of NHPs
[6] = NGS fold-enrichment, liver RNA of NHPs
[7] = NGS fold-enrichment, muscle of NHPs
[8] = NGS fold-enrichment, brain of mice
[9] = NGS fold-enrichment of RNA, NHP brain
[10] = NGS fold-enrichment, NHP liver DNA
[11] = NGS fold-enrichment, NHP liver RNA
[12] = NGS fold-enrichment, NHP muscle
[13] = NGS fold-enrichment, mouse brain

Sequence	Fold Enrichment relative to AAV9, DRG (NHP) [1, 2] [fold]	Fold Enrichment relative to AAV9, Brain (NHP) [1, 3] [fold]	Fold Enrichment relative to AAV9, Heart (NHP) [1, 4] [fold]	Fold Enrichment relative to AAV9, Liver DNA (NHP) [1, 5] [fold]	Fold Enrichment relative to AAV9, Liver RNA (NHP) [1, 6] [fold]	Fold Enrichment relative to AAV9, Muscle (NHP) [1, 7] [fold]	Fold Enrichment relative to AAV9, Brain (Mouse) (brain; [8]) [fold]	Fold Enrichment relative to AAV9, Brain (NHP) [1, 9] [fold]	Fold Enrichment relative to AAV9, DRG (NHP) ([1]; NGS fold-enrichment, NHP DRG) [fold]	Fold Enrichment relative to AAV9, Heart (NHP) ([1]; NGS fold-enrichment, NHP heart) [fold]	Fold Enrichment relative to AAV9, Liver DNA (NHP) [1, 10] [fold]	Fold Enrichment relative to AAV9, Liver RNA (NHP) [1, 11] [fold]	Fold Enrichment relative to AAV9, Muscle (NHP) [1, 12] [fold]	Fold Enrichment relative to AAV9, Brain (Mouse) (brain; [13]) [fold]	further results
KTINGSGSPHSKAQHPST	0.000	62.255	0.044	0.301	1.345	0.000	101.103	–	–	–	–	–	–	–	–
KTIDGSGSPHSKGQNRQT	0.000	73.930	0.000	0.091	0.106	0.000	63.626	–	–	–	–	–	–	–	–
KTENGSASPHSKALNQQT (KTFNGSASPHSKALNQQT)	–	–	–	–	–	–	–	84.258	0.000	0.122	0.037	0.104	0.000	31.855	–
KTINGSGSPHSKAQAIHT	–	–	–	–	–	–	–	–	–	–	–	–	–	–	Fold Enrichment relative to AAV9, Brain (NHP) ([1]; NGS fold-enrichment of matured AAV capsid variants, NHP brain, RNA): 56.047 fold; Fold Enrichment relative to AAV9, DRG (NHP) ([1]; NHP DRG): 0.000 fold; Fold Enrichment relative to AAV9, Heart (NHP) ([1]; NHP heart): 0.000 fold; Fold Enrichment relative to AAV9, Liver DNA (NHP) ([1]; NHP liver, DNA): 0.890 fold; Fold Enrichment relative to AAV9, Liver RNA (NHP) ([1]; NHP liver, RNA): 0.887 fold; Fold Enrichment relative to AAV9, Muscle (NHP) ([1]; NHP muscle): 212.32 fold; Fold Enrichment relative to AAV9, Brain (Mouse) (brain; mouse brain): 81.908 fold
KTIKGQDSPHKIGQNQQT	–	–	–	–	–	–	–	110.357	0.000	0.103	0.135	0.166	0.058	11.829	–
KTINGSGSPHSKAQGIRT	0.041	61.952	0.000	0.502	0.897	0.012	155.013	–	–	–	–	–	–	–	–
KAINGHDSPHKSGPRQQT	–	–	–	–	–	–	–	145.142	0.000	0.408	0.000	0.000	0.000	8.259	–
KNALGSGSPHSKAQNQQT	0.000	60.014	0.003	0.213	0.682	0.000	137.222	–	–	–	–	–	–	–	–
KTINGSGSPHGWVQNQQT	0.000	97.122	0.000	1.975	1.240	0.000	290.720	97.122	0.000	0.000	1.975	1.240	0.000	290.720	–
KTDKNSGSPHSKAQNQQT	0.000	70.964	0.000	0.123	0.070	0.000	62.932	–	–	–	–	–	–	–	–
KTVNGNGSPHSKAQNHQT	0.000	68.889	0.000	0.030	0.000	0.000	52.482	–	–	–	–	–	–	–	–

From US20260250318A1, “COMPOSITIONS AND METHODS FOR CROSSING THE BLOOD BRAIN BARRIER” (VOYAGER THERAPEUTICS, INC., priority 2022, published 2026)
